# Reference: US7803801B2, “Aminopyridine compounds having Syk inhibitory activity” (Japan Tobacco, Inc., priority 2005, dated 2010)
# Read-outs that look alike come from different tables or passages of the source.
# How the values were obtained:
# [1] = molecular target: GST-Syk Full Protein (human) (Homo sapiens, UniProt P43405); experiment: Syk kinase inhibition test (HTRF method); type: biochemical
# Summary of the method: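 HTRF read-out: after EDTA termination and 1 h with XL665-streptavidin and Eu-anti-phosphotyrosine, the 665/620 nm ratio was measured. The reaction ran 30 min at 20–25 °C with final 6.4 nM human GST-Syk, 250 nM biotinylated peptide, 100 μM ATP, pH 7.0 HEPES buffer, 2% DMSO.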
# [2] = tested on: cultured human mast cells; experiment: Degranulation inhibition test using cultured human mast cells (IgE cross-linking, β-Hexosaminidase release); type: cell-based; conditions: Mast cell, cultured human mast cells, read-out: human degranulation ave. IC50
# Experimental: Degranulation Inhibition Test Using Cultured Human Mast Cells
# (1) Separation of Hematopoietic Stem Cells;
# After 10 to 60 mL of umbilical cord blood collected with heparin was diluted with an equivalent amount of buffer (0.5% BSA, 2 mM EDTA/PBS-), it was superposed on Ficoll-Paque (Amersham Pharmacia Biotech) (Ficoll/Blood (1:2)) and mononuclear leukocyte fraction was collected by centrifuging it at 400 G (1350 rpm) 4° C. for 30 minutes. After centrifugal washing (1500 rpm, 5 min, 4° C.×3) with buffer, the number of cells was counted and 0.1 mL of CD34 Progenitor Cell Isolation Kit (Miltenyi Biotec), Reagent A1 (Fc blocking) was added for 1×10^8 cells. After agitation, 0.1 mL of Reagent A2 (CD34 antibody-hapten) was added (final volume 0.5 mL/1×10^8 cells) and incubated at 9° C. for further 15 minutes after agitation. After centrifugal washing (1500 rpm, 5 min, 4° C.×3), it was resuspeded in a buffer (0.4 mL) and 0.1 mL of Reagent B (anti hapten antibody-microbeads) was added and agitated (final volume 0.5 mL/1×10^8 cells) and incubated at 9° C. for further 15 minutes. After centrifugal washing (1500 rpm, 5 min, 4° C.×2), it was resuspeded in a buffer (0.5 mL) and loaded on CS column (Miltenyi Biotec) set in MACS (MAgnetic Cell Sorting system; Miltenyi Biotec, Daiichi Pure Chemicals) and washed with 30 mL of buffer to remove CD34^− cells. The column was separated from MACS and eluted with 30 mL of buffer and CD34^+ cells bound to the column were collected and used as a hematopoietic stem cell population.
# (2) Acquisition of Human Mast Cells by Long-Term Culturing of Hematopoietic Stem Cells;
# The CD34^+ cells separated in (1) were resuspended in Iscove's Modified Dulbecco's Medium (IMDM, Gibco) containing human (rh)SCF (1 μg/mL, Peprotech), rhIL-6 (0.5 μg/mL, Peprotech), rhIL-3 (10 ng/mL, Peprotech), 1% Insulin-Transferrin (Gibco), 5×10^−5M 2-ME (Gibco), 0.1% BSA (Sigma) in a density of 1×10^6 cells/ml and disseminated on 24-well culture plate with a dose of 0.1 mL/well and 0.9 ml of IMDM (Methocult SF^BIT StemCell technology) containing 0.9% methyl cellulose was added and culturing was started. The above culture medium (excluding methyl cellulose) was added in a week and after that 100 μL/well of the above culture medium (further excluding IL-3) was added at an interval of every once a week so that cells were diluted to maintain 10^5 cells/mL/well order and cultured more than about 8 weeks and thereby human culture mast cells were obtained.
# (3) Expression Enhancement of FcεRI and Inhibition Test IgE Cross-Linking Stimulating Degranulation;
# rhIL-4 (final concentration 1 ng/mL, R & D) and Homo sapiens(h) IgE (final concentration 0.5 μg/mL, CHEMICON) were added to the obtained human culture mast cells, and they were incubated for 5 days to enhance the expression of FcεRI. After incubation, cells were collected and, after centrifugal washing (IMDM), they were disseminated on 96-well culture plate in 5×10^4 cells/80 μL/well.
# 10 μL of a compound 10-fold diluted with IMDM after dissolved in DMSO (DMSO final concentration 0.1%) was added and reacted at 37° C. for 10 minutes. Further, 10 μL of anti-hIgE Ab (CHEMICON) adjusted to 100 μg/mL (final concentration 10 μg/mL) was added and degranulation was caused by being stimulated at 37° C. for 30 minutes. After centrifugation, 50 μL/well of the supernatant was collected and stored at −40° C. untill the quantity of degranulation was measured. The measurement of quantity of degranulation was performed using enzymatic activity of β-Hexosaminidase contained in the granulates as an index. That is, an equivalent amount of p-nitrophenyl-N-acetyl-β-D-glucosaminide (1 mM) (containing 0.1% Triton X-100) which is a substrate of β-Hexosaminidase was added to 50 μL of the culture filtrate, and after reacted at 37° C. for 2 hours, the reaction was terminated by using 100 μL of Carbonate buffer (0.1M, pH 10). […]
# [3] = HTRF, 100 μM ATP, 30 min room temperature, average, read-out: sykHTRF ave IC50
# [4] = anti-hIgE stimulation, β-Hexosaminidase index, average
# [5] = Tables 1-x, compounds A, read-out: sykHTRF ave IC50
# [6] = Tables 2-x, thiophene compounds B, read-out: sykHTRK ave IC50
# [7] = Tables 2-x, thiophene compounds B
"IC50 [1, 3] [nM]","IC50 [2, 4] [nM]",SMILES,further results
< 100,> 1000,"Cc1ccnc(Nc2cccc(-c3cnc([C@H]4CC[C@H](C(=O)N5CC[C@@H](O)C5)CC4)s3)n2)c1 [Compound A-241, ((R)-3-hydroxypyrrolidin-1-yl)-(trans-4-{5-[6-(4-methylpyridin-2-ylamino)pyridin-2-yl]thiazol-2-yl}cyclohexyl)metanone]",–
100 to 1000,100 to 1000,CC(=O)NC1CCN(C(=O)[C@H]2CC[C@H](c3ncc(-c4cccc(Nc5cc(C)ccn5)n4)s3)CC2)C1 (some centres unmarked) [Compound A-284],–
100 to 1000,100 to 1000,Cc1ccnc(Nc2cccc(-c3cnc(COCC(N)=O)s3)n2)c1 [Compound A-354],–
< 100,100 to 1000,"CC(=NO)c1ncc(-c2cccc(Nc3cc(C)ccn3)n2)s1 [Compound A-30, 1-{5-[6-(4-methylpyridin-2-ylamino)pyridin-2-yl]thiazol-2-yl}ethanone oxime]",–
< 100,100 to 1000,"Cc1ccnc(Nc2cccc(-c3cnc(N4CCC(C(N)=O)CC4)s3)n2)c1 [Compound A-3, 1-{5-[6-(4-methylpyridin-2-ylamino)pyridin-2-yl]thiazol-2-yl}piperidine-4-carboxamide]",–
< 100,< 100,"CNC(=O)N1CCN(c2ncc(-c3cccc(Nc4cc(C)ccn4)n3)s2)CC1 [Compound A-427, N-methyl-4-{5-[6-(4-methylpyridin-2-ylamino)pyridin-2-yl]thiazol-2-yl}piperazine-1-carboxamide]",–
100 to 1000,100 to 1000,CC(=O)N1CCC[C@H]1c1ncc(-c2cccc(Nc3cc(C)ccn3)n2)s1 [Compound A-48],–
< 100,< 100,"COc1ccnc(Nc2cccc(-c3cnc([C@H]4CC[C@H](C(N)=O)CC4)s3)n2)c1 [Compound A-339, trans-4-{5-[6-(4-methoxypyridin-2-ylamino)pyridin-2-yl]thiazol-2-yl}cyclohexanecarboxamide]",–
100 to 1000,100 to 1000,Cc1ccnc(Nc2cccc(-c3cnc(CCC4CCN(C(=O)c5ccncc5)CC4)s3)n2)c1 [Compound A-301],–
100 to 1000,100 to 1000,Cc1ccnc(Nc2cccc(-c3cnc(COC(=O)N4CCOCC4)s3)n2)c1 [Compound A-346],–
100 to 1000,100 to 1000,CC(=O)N1CCN(Cc2ncc(-c3cccc(Nc4cc(C)ccn4)n3)s2)CC1 [Compound A-190],–

# Continued, molecule first:
SMILES,"IC50 [1, 3] [nM]","IC50 [2, 4] [nM]",further results
"CO[C@@H]1CCN(c2ncc(-c3cccc(Nc4cc(C)ccn4)n3)s2)C1 [Compound A-490, N-{6-[2-((R)-3-methoxypyrrolidin-1-yl)thiazol-5-yl]pyridin-2-yl}-N-(4-methylpyridin-2-yl)amine]",–,–,"IC50 [1, 5]: < 100 nM; IC50 ([2]; Tables 1-x, compounds A): 100 to 1000 nM"
"CC1(c2ccnc(Nc3cccc(-c4cnc(N5CC[C@@H](O)C5)s4)n3)c2)OCCO1 [Compound A-548, (R)-1-(5-{6-[4-(2-methyl-[1,3]dioxolan-2-yl)pyridin-2-ylamino]pyridin-2-yl}thiazol-2-yl)pyrrolidin-3-ol]",–,–,"IC50 [1, 5]: < 100 nM; IC50 ([2]; Tables 1-x, compounds A): 100 to 1000 nM"
Cc1ccnc(Nc2cccc(-c3cnc(C4CCCN(S(C)(=O)=O)C4)s3)n2)c1 (centres unmarked) [Compound A-392],–,–,"IC50 [1, 5]: 100 to 1000 nM; IC50 ([2]; Tables 1-x, compounds A): 100 to 1000 nM"
"CC(=O)N1CCN(c2ncc(-c3cccc(Nc4cc(C)ccn4)n3)s2)CC1 [Compound A-419, 1-(4-{5-[6-(4-methylpyridin-2-ylamino)pyridin-2-yl]thiazol-2-yl}piperazin-1-yl)ethanone]",–,–,"IC50 [1, 5]: < 100 nM; IC50 ([2]; Tables 1-x, compounds A): 100 to 1000 nM"
"Cc1ccnc(Nc2cccc(-c3cnc(N4CCN(S(N)(=O)=O)CC4)s3)n2)c1 [Compound A-421, 4-{5-[6-(4-methylpyridin-2-ylamino)pyridin-2-yl]thiazol-2-yl}piperazine-1-sulfonamide]",–,–,"IC50 [1, 5]: < 100 nM; IC50 ([2]; Tables 1-x, compounds A): 100 to 1000 nM"
Cc1ccnc(Nc2cccc(-c3cnc([C@@H]4COC(C)(C)O4)s3)n2)c1 [Compound A-365],100 to 1000,100 to 1000,–
Cc1ccnc(Nc2cccc(-c3cnc(Cc4cccs4)s3)n2)c1 [Compound A-232],100 to 1000,> 1000,–
CC(=O)c1ccc(-c2cccc(Nc3cc(C4(C)OCCO4)ccn3)n2)s1 [Compound B-78],–,–,"IC50 [1, 6]: 100 to 1000 nM; IC50 [2, 7]: 100 to 1000 nM"
Cc1ccnc(Nc2cccc(-c3cnc(C(=O)NCCCO)s3)n2)c1 [Compound A-53],100 to 1000,100 to 1000,–
CC(=O)c1ccc(-c2cccc(Nc3ccc(C)cn3)n2)s1 [Compound B-76],–,–,"IC50 [1, 6]: > 1000 nM; IC50 [2, 7]: > 1000 nM"
"CC(=O)N1CCC(N(C)c2ncc(-c3cccc(Nc4cc(Cl)ccn4)n3)s2)CC1 [Compound A-536, 1-[4-(N-{5-[6-(4-chloropyridin-2-ylamino)pyridin-2-yl]thiazol-2-yl}-N-methylamino)piperidin-1-yl]ethanone]",–,–,"IC50 [1, 5]: < 100 nM; IC50 ([2]; Tables 1-x, compounds A): 100 to 1000 nM"
Cc1ccnc(Nc2cccc(-c3sc([C@H](C)N)nc3C)n2)c1 [Compound A-104],100 to 1000,> 1000,–
CC(=O)N[C@@H](C)c1ncc(-c2cccc(Nc3cc(C(C)=O)ccn3)n2)s1 [Compound A-212],100 to 1000,100 to 1000,–
"CC(=O)N(C)[C@H](c1ccc(O)cc1)c1ncc(-c2cccc(Nc3cc(C)ccn3)n2)s1 [Compound A-372, N—((R)-(4-hydroxyphenyl)-{5-[6-(4-methylpyridin-2-ylamino)pyridin-2-yl]thiazol-2-yl}methyl)-N-methylacetamide]",< 100,100 to 1000,–
"Cc1ccnc(Nc2cccc(-c3cnc(N4CCC(CNC(=O)CO)CC4)s3)n2)c1 [Compound A-486, 2-hydroxy-N-(1-{5-[6-(4-methylpyridin-2-ylamino)pyridin-2-yl]thiazol-2-yl}piperidin-4-ylmethyl)acetamide]",–,–,"IC50 [1, 5]: < 100 nM; IC50 ([2]; Tables 1-x, compounds A): 100 to 1000 nM"
CCOC(=O)CC(=O)N[C@@H](C)c1ncc(-c2cccc(Nc3cc(C)ccn3)n2)s1 [Compound A-122],> 1000,> 1000,–
"Cc1ccnc(Nc2cccc(-c3ccc(/C(N)=N/O)s3)n2)c1 [Compound B-60, N-hydroxy-5-[6-(4-methylpyridin-2-ylamino)pyridin-2-yl]thiophene-2-carboxyamidine]",–,–,"IC50 [1, 6]: < 100 nM; IC50 [2, 7]: 100 to 1000 nM"
O=C(O)Cc1ccnc(Nc2cccc(-c3cnc([C@@H]4CCC(=O)N4)s3)n2)c1 [Compound A-340],100 to 1000,100 to 1000,–
"CNC(=O)C1CCN(c2ncc(-c3cccc(Nc4cc(OC)ccn4)n3)s2)CC1 [Compound A-436, N-methyl-1-{5-[6-(4-methoxypyridin-2-ylamino)pyridin-2-yl]thiazol-2-yl}piperidine-4-carboxamide]",–,–,"IC50 [1, 5]: < 100 nM; IC50 ([2]; Tables 1-x, compounds A): 100 to 1000 nM"
"CC(=O)Nc1nc(C)c(-c2cncc(Nc3cc(C)ccn3)n2)s1 [Compound A-21, N-{4-methyl-5-[6-(4-methylpyridin-2-ylamino)pyrazin-2-yl]thiazol-2-yl}acetamide]",< 100,100 to 1000,–
